Measurements from US20130029981A1, “COMPOUNDS, COMPOSITIONS, AND METHODS FOR CONTROLLING BIOFILMS” (Katholieke Universiteit Leuven, priority 2009, published 2013).
Read-outs that look alike come from different tables or passages of the source.

System: S. Typhimurium ATCC14028
Assay: Static peg assay for prevention of biofilm formation (Calgary device, crystal violet)
Assay type: cell-based, Salmonella Typhimurium
Protocol: (§1) Evaluation of the biofilm inhibitory activity of some substituted 2-amino-1H-imidazoles of the invention was carried out by growing up biofilms of S. Typhimurium ATCC14028 or SL1344 or Pseudomonas aeruginosa PA14 in the presence of different concentrations (1/2 dilution series) of biofilm inhibitors, by using the Calgary biofilm device. After an incubation period of 24 hours at 25° C. or 37° C. or 48 hours at 16° C. the biofilms were visualized by crystal violet staining. In the next step the stain was extracted from the biofilm with 30% acetic acid. The absorbance of the resolubilized stain at 570 nm is a measure of the amount of biofilm formed.
In examples 2 and 3, the following materials and methods were used.
The device used for biofilm formation is a platform carrying 96 polystyrene pegs (Nunc no. 445497) that fits as a microtiter plate lid with a peg hanging into each microtiter plate well (Nunc no. 269789). Biofilm formation assays were carried out at 16° C., 25° C. and 37° C.
For biofilm assays at 16° C. and 25° C., two-fold serial dilutions of the compounds in 100 μl liquid TSB 1/20 broth per well were prepared in the microtiter plate. Subsequently, an overnight culture of S. Typhimurium ATCC14028 or SL1344 (grown up in LB medium) was diluted 1:100 into TSB 1/20 broth and 100 μl (ca. 10^6 cells) was added to each well of the microtiter plates, resulting in a total amount of 200 μl medium per well. The pegged lid was placed on the microtiter plate and the plate was incubated for 48 hours at 16° C. or for 24 hours at 25° C. without shaking. During this incubation period biofilms were formed on the surface of the pegs. In case of the assay at 16° C., after 24 hours the lid was transferred into a new plate with medium and the specific molecules used for testing. […] For quantification of biofilm formation, the pegs were washed once in 200 μl phosphate buffered saline (PBS). The remaining attached bacteria were stained for 30 minutes with 200 μl 0.1% (w/v) crystal violet in an isopropanol/methanol/PBS solution (v/v 1:1:18). Excess stain was rinsed off by placing the pegs in a 96-well plate filled with 200 μl distilled water per well. After the pegs were air dried (30 min), the dye bound to the adherent cells was extracted with 30% glacial acetic acid (200 μl). The OD570 of each well was measured using the VERSAmax microtiter plate reader. The IC50 value for each compound was determined from concentration gradients in two or three independent experiments (with 2 or 3 repeats per experiment), by using the GraphPad software of Prism.
For biofilm assays at 37° C., two-fold serial dilutions of the compounds in 50 μl liquid CFA broth per well were prepared in the microtiter plate. Subsequently, an overnight culture of S. Typhimurium ATCC 14028 was diluted 1:100 into CFA broth and 100 μl (ca. 10^6 cells) was added to each well of the microtiter plates, resulting in a total amount of 150 μl medium per well. The pegged lid was placed on the microtiter plate and the plate was incubated for 24 hours at 37° C. without shaking. During incubation the plates were placed in a humidity controlled container to prevent evaporation of the growth medium. Quantification of biofilm formation was performed similarly as described above for the assays at 16° C. and 25° C.
as §1, with “imidazo[1,2-a]pyrimidinium bromide salts” for “2-amino-1H-imidazoles”

[1] = 25° C., 24 hours, Table 15, read-out: (1) IC50 (biofilm inhibition)
[2] = 25° C., Table 16, read-out: S. Typhimurium IC50 (biofilm formation)
[3] = Salmonella enterica, 25° C., 24 hours, Table 15, read-out: (1) IC50 (biofilm inhibition)
[4] = 25° C., Table 11, read-out: IC50 (biofilm formation)
[5] = 25° C., Table 14, read-out: IC50 biofilm inhibition
[6] = 25° C., Table 19, read-out: IC50 (biofilm formation)
[7] = S. Typhimurium ATCC 14028, 25° C., read-out: S. Typhimurium IC50 (biofilm formation)
[8] = S. Typhimurium ATCC 14028, 25° C., read-out: IC50 for biofilm inhibition (25° C.)
[9] = Salmonella enterica, 25° C., Table 11, read-out: IC50 (biofilm formation)
[10] = Salmonella enterica, 25° C., Table 14, read-out: IC50 biofilm inhibition
[11] = 25° C., strain not given, read-out: IC(50), preventive activity against S. typhimurium biofilms

## CCCCCCCCCCN1c2nccc[n+]2CC1(O)c1ccc(-c2ccc(-c3ccc([N+](=O)[O-])cc3)cc2)cc1 (racemic)
[1]
  IC50: 525 µM

## CN1c2nccc[n+]2CC1(O)c1ccc(Cl)cc1 (racemic) [Compound 15]
[2]
  IC50: 225 µM

## CN1c2nccc[n+]2CC1(O)c1ccc([N+](=O)[O-])cc1 (racemic) [Compound 28]
[2]
  IC50: 698 µM

## CCCCCCCCCCN1c2nccc[n+]2CC1(O)c1cccc2ccccc12 (stereo not drawn) [1-decyl-2-hydroxy-2-(1-naphthalenyl)-2,3-dihydro-1H-imidazo[1,2-a]pyrimidin-4-ium bromide]
[3]
  IC50: 68.9 µM

## CCCCCCCCCCN1c2nccc[n+]2CC1(O)c1cccc(Br)c1 (stereo not drawn) [1-decyl-2-hydroxy-2-(3-bromophenyl)-2,3-dihydro-1H-imidazo[1,2-a]pyrimidin-4-ium bromide]
[3]
  IC50: 33.8 µM

## CCCCCCCCCCN1c2nccc[n+]2CC1(O)c1ccc(S(C)(=O)=O)cc1 (stereo not drawn) [1-decyl-2-hydroxy-2-(4-methylsulfonylphenyl)-2,3-dihydro-1H-imidazo[1,2-a]pyrimidin-4-ium bromide]
[3]
  IC50: 21.9 µM

## CCCCCCCCCCN1c2nccc[n+]2CC1(O)c1ccc(SC)cc1 (stereo not drawn) [1-decyl-2-hydroxy-2-(4-methylthiophenyl)-2,3-dihydro-1H-imidazo[1,2-a]-pyrimidin-4-ium bromide]
[3]
  IC50: 45.7 µM

## CCCCCCCCCCN1c2nccc[n+]2CC1(O)c1ccc(-c2ccc([N+](=O)[O-])cc2)cc1 (stereo not drawn) [1-decyl-2-hydroxy-2-(4′-nitro[1,1′-biphenylyl]-4-yl)-2,3-dihydro-1H-imidazo[1,2-a]pyrimidin-4-ium bromide]
[1]
  IC50: 200 µM

## CCCCCCCC[n+]1c(-c2ccc(-c3ccc(-c4ccccc4)cc3)cc2)cn2cccnc21.[O-][Cl+3]([O-])([O-])[O-] [1-octyl-2-([1,1′:4′,1″-terphenyl]-4-yl)-imidazo[1,2-a]pyrimidin-1-ium perchlorate]
Salmonella enterica, 24 h, read-out: (1) IC50 (biofilm inhibition)
  IC50: 5.03 µM

## CN1c2nccc[n+]2CC1(O)c1ccc(F)cc1 (stereo not drawn) [Compound 37]
[2]
  IC50: > 800 µM

## CCCCN1c2nccc[n+]2CC1(O)c1ccc(F)cc1 (stereo not drawn) [Compound 38]
[4]
  IC50: 175 µM
[5]
  IC50: 175 µM
[2]
  IC50: 163 µM

## CCCCCCCCCCN1c2nccc[n+]2CC1(O)c1ccc(F)cc1 (stereo not drawn) [Compound 40]
[1]
  IC50: 20 µM
[2]
  IC50: 20 µM

## CCCCN1c2nccc[n+]2CC1(O)c1ccc(Br)cc1 (stereo not drawn) [Compound 41]
[4]
  IC50: 64.9 µM
[5]
  IC50: 64.9 µM
[2]
  IC50: 90.1 µM

## CC(C)CN1c2nccc[n+]2CC1(O)c1ccc(Br)cc1 (stereo not drawn) [Compound 42]
[2]
  IC50: 5.2 µM

## CCCCCN1c2nccc[n+]2CC1(O)c1ccc(Br)cc1 (stereo not drawn) [Compound 43]
[2]
  IC50: 1.7 µM

## CN1c2nccc[n+]2CC1(O)c1cccc([N+](=O)[O-])c1 (stereo not drawn) [Compound 44]
[2]
  IC50: 564 µM

## CCCCN1c2nccc[n+]2CC1(O)c1ccc(OC)cc1 (stereo not drawn) [Compound 45]
[2]
  IC50: 314 µM

## CCCCCCCCCCN1c2nccc[n+]2CC1(O)c1ccc(OC)cc1 (stereo not drawn) [Compound 47]
[1]
  IC50: 18.6 µM
[2]
  IC50: 18.6 µM

## CC(C)CN1c2nccc[n+]2CC1(O)c1ccc(Cl)c(Cl)c1 (stereo not drawn) [Compound 48]
[2]
  IC50: 8 µM

## CCCCCCCCCCN1c2nccc[n+]2CC1(O)c1ccc(Cl)c(Cl)c1 (stereo not drawn) [Compound 50]
[1]
  IC50: 32.4 µM
[2]
  IC50: 32.4 µM

## O=[N+]([O-])c1ccc(C2(O)C[n+]3cccnc3N2C2CC2)cc1 (stereo not drawn) [Compound 68]
25° C., Table 18, read-out: S. Typhimurium IC50 (biofilm formation)
  IC50: 125 µM

## O=[N+]([O-])c1ccc(C2(O)C[n+]3cccnc3N2Cc2ccccc2)cc1 (stereo not drawn) [Compound 72]
[4]
  IC50: 222 µM
[5]
  IC50: 222 µM
[6]
  IC50: 174 µM

## COc1ccc(CN2c3nccc[n+]3CC2(O)c2ccc(Br)cc2)cc1 (stereo not drawn) [Compound 74]
[4]
  IC50: 105 µM
[5]
  IC50: 105 µM
[6]
  IC50: 110 µM

## COc1cccc(CCN2c3nccc[n+]3CC2(O)c2ccc([N+](=O)[O-])cc2)c1 (stereo not drawn) [Compound 75]
[4]
  IC50: 124 µM
[5]
  IC50: 124 µM
[6]
  IC50: 124 µM

## COc1cccc(CCN2c3nccc[n+]3CC2(O)c2ccc(F)cc2)c1 (stereo not drawn) [Compound 76]
[6]
  IC50: 105 µM

## CCCCCCCCCNc1nc(-c2ccc(Cl)cc2)c[nH]1 [Compound 89]
[7]
  IC50: > 800 µM

## CNc1ncc(-c2ccc(F)c(F)c2)[nH]1 [Compound 112]
[7]
  IC50: 602 µM

## CNc1ncc(-c2ccc(O)cc2)[nH]1 [Compound 113]
[7]
  IC50: 160 µM

## CCCCNc1nc(-c2ccccc2)c[nH]1 [R1=H, R2=Butyl, R3=H, R4=Ph]
[8]
  IC50: 25 µM

## CCCCNc1nc(-c2ccc(Br)cc2)c[nH]1 [R1=H, R2=Butyl, R3=H, R4=p-Br—Ph]
[8]
  IC50: 7 µM

## CCCCNc1nc(-c2ccc(OC)cc2)c[nH]1 [R1=H, R2=Butyl, R3=H, R4=p-MeO—Ph]
[8]
  IC50: 49 µM

## O=[N+]([O-])c1ccc(-c2c[nH]c(NC3CCCCC3)n2)cc1 [R1=H, R2=Cyclohexyl, R3=H, R4=p-NO2—Ph]
[8]
  IC50: 44 µM

## CNc1nc(-c2ccc(F)cc2)c[nH]1 [R1=H, R2=Methyl, R3=H, R4=p-F—Ph]
[8]
  IC50: 102 µM

## c1ccc(-c2ccc(-c3c[nH]c(NC4CCCC4)n3)cc2)cc1 [R1=H, R2=cyclopentyl, R3=H, R4=Bi—Ph]
[8]
  IC50: 46 µM

## c1ccc(-c2c[nH]c(NC3CCCC3)n2)cc1 [R1=H, R2=cyclopentyl, R3=H, R4=Ph]
[8]
  IC50: 53 µM

## O=[N+]([O-])c1ccc(-c2c[nH]c(NC3CCCC3)n2)cc1 [R1=H, R2=cyclopentyl, R3=H, R4=p-NO2—Ph]
[8]
  IC50: 12 µM

## Cc1ccc(-c2c[nH]c(NC(C)C)n2)cc1 [R1=H, R2=i-Propyl, R3=H, R4=p-Me—Ph]
[8]
  IC50: 99 µM

## CCCCCCN1c2nccc[n+]2C(C)C1(O)c1ccccc1 (stereo not drawn) [R1=Hexyl, R3=Ph, R4=Me, 1-hexyl-2-hydroxy-2-phenyl-3-methyl-2,3-dihydro-1H-imidazo[1,2-a]pyrimidin-4-ium bromide]
[9]
  IC50: 218 µM
[10]
  IC50: 218 µM

## Cc1ccc(C2(O)C[n+]3cccnc3N2C(C)C)cc1 (stereo not drawn) [R1=Isopropyl, R3=4-Me—Ph, R4=H, 1-isopropyl-2-hydroxy-2-(4-methylphenyl)-2,3-dihydro-1H-imidazo[1,2-a]pyrimidin-4-ium bromide]
[9]
  IC50: 217 µM
[10]
  IC50: 217 µM

## N#Cc1ccc(C2(O)C[n+]3cccnc3N2C2CCCCC2)cc1 (stereo not drawn) [R1=cyclohexyl, R3=4-CN—Ph, R4=H, 1-cyclohexyl-2-hydroxy-2-(4-cyanophenyl)-2,3-dihydro-1H-imidazo[1,2-a]pyrimidin-4-ium bromide]
[9]
  IC50: 354 µM
[10]
  IC50: 354 µM

## COc1ccc(CN2c3nccc[n+]3CC2(O)c2ccc([N+](=O)[O-])cc2)cc1 (stereo not drawn) [R1=p-MeOBn, R3=4-NO2-Ph, R4=H, 1-(4-methoxybenzyl)-2-hydroxy-2-(4-nitrophenyl)-2,3-dihydro-1H-imidazo[1,2-a]pyrimidin-4-ium bromide]
[9]
  IC50: 220 µM
[10]
  IC50: 220 µM

## Clc1ccc(-c2cnc(NCCn3cc(C4CCCCC4)nn3)[nH]2)cc1Cl [R3=3,4-diClPh; R4=H; R9=c-hexyl; n=2]
[11]
  IC50: 55.2 µM

## Clc1ccc(-c2cnc(NCCCn3cc(C4CCCCC4)nn3)[nH]2)cc1Cl [R3=3,4-diClPh; R4=H; R9=c-hexyl; n=3]
[11]
  IC50: 26.8 µM
